Assay results: US9708251B2, “Unsaturated fatty alcohol alkoxylates from natural oil metathesis” (Stepan Company, priority 2012, dated 2017)
Each block holds one molecule with its values, some of them ahead of it.

Columns and labels:
[1] = Surfactant phase behavior study (cross-polarized microscopy); type: physicochemical; conditions: room temperature
Procedure: Phase behavior is observed using an Olympus BH-2 cross-polarized microscope at 100-400× and room temperature (20° C. to 22° C.). The inventive monounsaturated alcohol ethoxylates are compared with their saturated analogs.
Samples are prepared by diluting the most concentrated product gradually with deionized water. When the surfactant concentration approaches a phase transition, the concentration is varied at 2-4% intervals to estimate the phase boundary. The actives level reported in Table 4 for each phase boundary is within ±5% of the true boundary.
Samples are loaded between a microscope slide and cover glass and are allowed to equilibrate before observation. Microscopic texture is analyzed and used to determine the phase. For some samples, an AR 2000 rheometer (TA Instruments) is used to measure viscosity at 25° C. to further verify phase behavior.

[2] = Agrichemical solvent analysis: active solubility; type: physicochemical; conditions: room temperature
Procedure: Solvency strength of potential agrichemical solvents is evaluated by identifying the solubility level of three standard pesticides in the solvent by weight percent: 2,4-D acid, imidacloprid, and tebuconazole. […] The active material is also accurately weighed before addition. Initial amounts of active material are approximately: 2,4-D: 0.3 g; imidacloprid: 0.02 g; tebuconazole: 0.3 g. Solvent and pesticide active are combined, allowed to mix for 1 h at room temperature, and then inspected for the presence of undissolved active material. Additional active material is added in appropriately small increments until it no longer dissolves completely. This mixture is then stirred for 24 h at room temperature, and if the active has completely dissolved, additional active ingredient is added and the mixture is stirred another 24 h at room temperature. The percent solubility is recorded, and performance is compared with that of a standard agricultural solvent.

[3] = 0.4 wt. % active, 342 ppm hard water
Procedure: Surfactant solution (100 mL) is carefully transferred to a stainless-steel mixing cup, then mixed at high speed (27K rpm) using a Hamilton Beach mixer for 10 s. The contents are quickly poured into a 100-mL graduated cylinder to the 100-mL mark, and a stopwatch is immediately started. The amount of liquid settling in the cylinder is recorded every 15 s for 4 min. Less liquid drained indicates greater foam stability.

[4] = Emulsion stability testing of nonionic emulsifiers, aromatic solvent series; type: physicochemical; parameters: key to 24 h separation, appearance / 1 h separation, appearance / 1 h separation, amount: C = creamy; CO = creamy oil; O = oil; GC = gritty cream; NS = no separation; OC = oily cream; key to Spon. (spontaneity): G = good; F = fair; P = poor
Procedure: (§1) Nonionic samples contain a low amount of water (<1%) and are prepared as emulsifiable concentrates with three pesticides using two different solvent systems. In the aromatic solvent series, the nonionic sample replaces Toximul® 8240 (castor oil ethoxylate, 36 POE, Stepan), and in the Hallcomid™ (N,N-dimethylcaprylamide/N,N-dimethylcapramide, Stepan) solvent series, the nonionic sample replaces Ninex® MT-630F.
Sample preparation: Ninate® 60E (calcium alkylbenzenesulfonate, Stepan) and the test sample are stirred until homogeneous. […] Controls 1-3 are made by using Toximul 8240 in the amounts indicated instead of the nonionic sample.
Formulations: • 1. Bifenthrin, 240 g/L (2.99 g), Aromatic 100 (ExxonMobil, 8.05 g), Ninate 60E (0.38 g), and nonionic sample or Toximul 8240 (0.58 g). • 2. 2,4-D ester, 480 g/L (8.90 g), Exxsol® D-110 (ExxonMobil, 2.50 g), Ninate 60E (0.36 g), and nonionic sample or Toximul 8240 (0.24 g). • 3. Tebuconazole, 360 g/L (4.45 g), N-methyl-2-pyrrolidone (6.35 g), Ninate 60E (0.48 g), nonionic sample or Toximul 8240 (0.72 g).
(§2) Emulsion Stability Testing
(§3) A Mohr pipette is used to feed pesticide/surfactant concentrates to each cylinder.

[5] = Emulsion stability testing of nonionic emulsifiers, Hallcomid solvent series; type: physicochemical; parameters: key to 24 h separation, appearance / 1 h separation, appearance / 1 h separation, amount: C = creamy; CO = creamy oil; O = oil; GC = gritty cream; NS = no separation; OC = oily cream; key to Spon. (spontaneity): G = good; F = fair; P = poor
Procedure: as §1
(§4) Hallcomid Solvent Series.
(§5) Sample preparation: The surfactants are combined and stirred until homogeneous, with the nonionic sample melted if needed prior to combination. Controls 1-3 are made by using Ninex MT-630F in the amounts indicated instead of the nonionic sample.
as §2, §3

[6] = as above; type: physicochemical; parameters: key: C = creamy; CO = creamy oil; O = oil; GC = gritty cream; NS = no separation; OC = oily cream; conditions: Bifenthrin 240 g/L in Hallcomid M-8-10, 34 ppm water
Procedure: as §1, §4, §5, §2, §3

[7] = 2,4-D ester 480 g/L in Exxsol D-110, 34 ppm water
[8] = 2,4-D ester 480 g/L in Exxsol D-110, 1000 ppm water
[9] = Bifenthrin 240 g/L in Aromatic 100, 34 ppm water
[10] = Bifenthrin 240 g/L in Aromatic 100, 1000 ppm water
[11] = Tebuconazole 360 g/L in N-methyl-2-pyrrolidone, 34 ppm water
[12] = Tebuconazole 360 g/L in N-methyl-2-pyrrolidone, 1000 ppm water
[13] = 2,4-D diester 480 g/L in Hallcomid M-8-10, 34 ppm water
[14] = 2,4-D diester 480 g/L in Hallcomid M-8-10, 1000 ppm water
[15] = Bifenthrin 240 g/L in Hallcomid M-8-10, 34 ppm water
[16] = Bifenthrin 240 g/L in Hallcomid M-8-10, 1000 ppm water
[17] = Tebuconazole 360 g/L in Hallcomid M-8-10, 34 ppm water
[18] = Tebuconazole 360 g/L in Hallcomid M-8-10, 1000 ppm water

Cubic phase region ([1]; in deionized water): 37-55 % Actives Level | Paste phase region ([1]; in deionized water): 93-100 % Actives Level
Molecule: CCCCCCCCCCOCCOCCOCCOCCOCCOCCOCCOCCOCCOCCOCCOCCOCCOCCOCCO [sat. analog of A10-16]

solubility of 2,4-D Acid in the solvent [2]: 39.5 weight percent | solubility of Imidacloprid in the solvent [2]: 29.3 weight percent | solubility of Tebuconazole in the solvent [2]: 62.2 weight percent
Molecule: CN1CCCC1=O [N-methyl-2-pyrrolidone, reference compound]

Hexagonal phase region ([1]; in deionized water): 30-67 % Actives Level | Lamellar phase region ([1]; in deionized water): 67-90 % Actives Level
Molecule: CCCCCCCCCCCCOCCOCCOCCOCCOCCOCCOCCO [sat. analog of A12-13]

combined isotropic phases (clear and opaque), share of the total [1]: about 38% | Isotropic Clear phase region ([1]; in deionized water): 90-100 % Actives Level | Isotropic Opaque phase region ([1]; in deionized water): 0-28 % Actives Level | Lamellar phase region ([1]; in deionized water): 28-90 % Actives Level
Molecule: CCCCCCCCCCCCOCCOCCOCCO [sat. analog of A12-7]

Lamellar phase region ([1]; in deionized water): 43-60 % Actives Level
Molecule: CCCCCCCCCCOCCOCCOCCOCCOCCOCCOCCO [sat. analog of A10-13]

combined isotropic phases (clear and opaque), share of the total [1]: about 38% | Isotropic Clear phase region ([1]; in deionized water): 90-100 % Actives Level | Isotropic Opaque phase region ([1]; in deionized water): 0-28 % Actives Level | Lamellar phase region ([1]; in deionized water): 28-90 % Actives Level
Molecule: CCCCCCCCCCOCCOCCOCCO [sat. analog of A10-7]

Liquid volume at drain time 0.5 min [3]: 0.25 mL | Liquid volume at drain time 1.0 min [3]: 1.00 mL | Liquid volume at drain time 1.5 min [3]: 2.00 mL | Liquid volume at drain time 2.0 min [3]: 3.00 mL | Liquid volume at drain time 2.5 min [3]: 4.00 mL | Liquid volume at drain time 3.0 min [3]: 5.25 mL | Liquid volume at drain time 3.5 min [3]: 6.50 mL | Liquid volume at drain time 4.0 min [3]: 7.50 mL
Molecule: ammonium alkyl ether sulfate [Control 3, reference compound]

Cubic phase region ([1]; in deionized water): 28-50 % Actives Level | Hexagonal phase region ([1]; in deionized water): 50-73 % Actives Level | Paste phase region ([1]; in deionized water): 93-100 % Actives Level
Molecule: CCCCCCCCCCCCOCCOCCOCCOCCOCCOCCOCCOCCOCCOCCOCCOCCOCCOCCOCCO [sat. analog of A12-16]

Lamellar phase region ([1]; in deionized water): 40-83 % Actives Level | Lamellar/Isotropic phase region ([1]; in deionized water): 30-40 % Actives Level
Molecule: CCCCCCCCCCCCOCCOCCOCCOCCOCCO [sat. analog of A12-10]

1 h separation, amount [4, 7]: 4.5 mL | 1 h separation, appearance [4, 7]: CO | 24 h separation, amount [4, 7]: 2 O, 1 CO, 2 C | Spon. (spontaneity) [4, 7]: P | 1 h separation, amount [4, 8]: 3.8 mL | 1 h separation, appearance [4, 8]: O | 24 h separation, amount [4, 8]: 4 mL | 24 h separation, appearance [4, 8]: O | Spon. (spontaneity) [4, 8]: P | 1 h separation, amount [4, 9]: 7.5 mL | 1 h separation, appearance [4, 9]: CO | 24 h separation, amount [4, 9]: 3 O, 3 CO | Spon. (spontaneity) [4, 9]: P | 1 h separation, amount [4, 10]: 6 mL | 1 h separation, appearance [4, 10]: O | 24 h separation, amount [4, 10]: 6 mL | 24 h separation, appearance [4, 10]: O | Spon. (spontaneity) [4, 10]: P | 1 h separation, amount [4, 11]: 2 mL | 1 h separation, appearance [4, 11]: GC | 24 h separation, amount [4, 11]: 3 mL | 24 h separation, appearance [4, 11]: GC | Spon. (spontaneity) [4, 11]: P | 1 h separation, amount [4, 12]: 3 mL | 1 h separation, appearance [4, 12]: GC | 24 h separation, amount [4, 12]: 4 mL | 24 h separation, appearance [4, 12]: GC | Spon. (spontaneity) [4, 12]: P | 1 h separation, amount [5, 13]: 6 mL | 1 h separation, appearance [5, 13]: C | 24 h separation, amount [5, 13]: 9.5 mL | 24 h separation, appearance [5, 13]: C | Spon. (spontaneity) [5, 13]: F | 1 h separation, amount [5, 14]: 6.5 mL | 1 h separation, appearance [5, 14]: C | 24 h separation, amount [5, 14]: 8 mL | 24 h separation, appearance [5, 14]: C | Spon. (spontaneity) [5, 14]: F | 1 h separation, amount [5, 15]: NS | Spon. (spontaneity) [5, 15]: F | 1 h separation, amount [5, 16]: Tr. GC, 12 C | 24 h separation, amount [5, 16]: 3.5 O, 3 CO | Spon. (spontaneity) [5, 16]: F | 1 h separation, amount [5, 17]: 3 mL | 1 h separation, appearance [5, 17]: C | 24 h separation, amount [5, 17]: 6.5 mL | 24 h separation, appearance [5, 17]: C | Spon. (spontaneity) [5, 17]: F | 1 h separation, amount [5, 18]: 4 mL | 1 h separation, appearance [5, 18]: C | 24 h separation, amount [5, 18]: 5.8 mL | 24 h separation, appearance [5, 18]: C | Spon. (spontaneity) [5, 18]: F | 24 h separation, amount [6]: NS
Molecule: C=CCCCCCCCCOCCO [A10-4]

1 h separation, amount [4, 7]: 6 mL | 1 h separation, appearance [4, 7]: C | 24 h separation, amount [4, 7]: 6.7 mL | 24 h separation, appearance [4, 7]: C | Spon. (spontaneity) [4, 7]: P | 1 h separation, amount [4, 8]: 4.7 mL | 1 h separation, appearance [4, 8]: O | 24 h separation, amount [4, 8]: 4.5 mL | 24 h separation, appearance [4, 8]: O | Spon. (spontaneity) [4, 8]: P | 1 h separation, amount [4, 9]: 8 mL | 1 h separation, appearance [4, 9]: C | Spon. (spontaneity) [4, 9]: P | 1 h separation, amount [4, 10]: 5.2 mL | 1 h separation, appearance [4, 10]: O | 24 h separation, amount [4, 10]: 5.2 mL | 24 h separation, appearance [4, 10]: O | Spon. (spontaneity) [4, 10]: P | 1 h separation, amount [4, 11]: 2.3 mL | 1 h separation, appearance [4, 11]: C | 24 h separation, amount [4, 11]: 2.5 mL | 24 h separation, appearance [4, 11]: GC | Spon. (spontaneity) [4, 11]: P | 1 h separation, amount [4, 12]: 2.3 mL | 1 h separation, appearance [4, 12]: C | 24 h separation, amount [4, 12]: 2.7 mL | 24 h separation, appearance [4, 12]: GC | Spon. (spontaneity) [4, 12]: P | 1 h separation, amount [5, 13]: 6.2 mL | 1 h separation, appearance [5, 13]: C | 24 h separation, amount [5, 13]: 8.8 mL | 24 h separation, appearance [5, 13]: C | Spon. (spontaneity) [5, 13]: F | 1 h separation, amount [5, 14]: 6.9 mL | 1 h separation, appearance [5, 14]: C | 24 h separation, amount [5, 14]: 8.6 mL | 24 h separation, appearance [5, 14]: C | Spon. (spontaneity) [5, 14]: F | 1 h separation, amount [5, 15]: NS | Spon. (spontaneity) [5, 15]: G | 1 h separation, amount [5, 16]: 11 mL | 1 h separation, appearance [5, 16]: C | 24 h separation, amount [5, 16]: 2 O, 3 CO | Spon. (spontaneity) [5, 16]: F | 1 h separation, amount [5, 17]: 3.1 mL | 1 h separation, appearance [5, 17]: C | 24 h separation, amount [5, 17]: 5.9 mL | 24 h separation, appearance [5, 17]: C | Spon. (spontaneity) [5, 17]: F | 1 h separation, amount [5, 18]: 3.1 mL | 1 h separation, appearance [5, 18]: C | 24 h separation, amount [5, 18]: 6 mL | 24 h separation, appearance [5, 18]: C | Spon. (spontaneity) [5, 18]: F | 24 h separation, amount [6]: NS
Molecule: CCC=CCCCCCCCCOCCO (mixture of isomers) [A12-4]

Lamellar phase region ([1]; in deionized water): 55-80 % Actives Level
Molecule: CCCCCCCCCCOCCOCCOCCOCCOCCO [sat. analog of A10-10]

solubility of 2,4-D Acid in the solvent [2]: 45.4 weight percent | solubility of Imidacloprid in the solvent [2]: 4.2 weight percent | solubility of Tebuconazole in the solvent [2]: 38.8 weight percent
Molecule: CCCCCCCCCC(=O)N(C)C [N,N-dimethylcapramide, reference compound]
